Reference: the supplement of paper PMC10307832

Columns and labels:
Assay in all cases: relative viability (nuclei count vs DMSO), 5 days (fraction); higher = more cells survive
[1] = compound: CC(C)CCN1c2nc(Nc3cc(F)c(O)c(F)c3)ncc2N(C)C(=O)C1C [BI-D1870] + CC(=O)Nc1cccc(-n2c(=O)n(C3CC3)c(=O)c3c(Nc4ccc(I)cc4F)n(C)c(=O)c(C)c32)c1 [Trametinib] (partner 0.02 µM)
Outline: (§1)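 The day after seeding in 1536-well plates, lung cancer cell lines were treated by pin tool with a single drug, or with a fixed anchor-drug dose together with five library-drug doses (not always all listed) in √10 steps. After 5 days, a combined fix-and-stain solution (final 0.05% Triton X-100, 1% formaldehyde, 1 ug/ml Hoechst) was added. Nuclei counted on 4× images gave relative viability as treated counts over vehicle counts, reported as the median of duplicate plates.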

[2] = compound: CC(C)CCN1c2nc(Nc3cc(F)c(O)c(F)c3)ncc2N(C)C(=O)C1C [BI-D1870] + CC1(C)CCC(c2ccc(Cl)cc2)=C(CN2CCN(c3ccc(C(=O)NS(=O)(=O)c4ccc(N[C@H](CCN5CCOCC5)CSc5ccccc5)c(S(=O)(=O)C(F)(F)F)c4)cc3)CC2)C1 [Navitoclax] (partner 0.5 µM)
Outline: as §1

[3] = compound: CC(C)CCN1c2nc(Nc3cc(F)c(O)c(F)c3)ncc2N(C)C(=O)C1C [BI-D1870] + CC(=O)c1c(C)c2cnc(Nc3ccc(N4CCNCC4)cn3)nc2n(C2CCCC2)c1=O [Palbociclib] (partner 0.5 µM)
Outline: as §1

[4] = compound: CC(C)CCN1c2nc(Nc3cc(F)c(O)c(F)c3)ncc2N(C)C(=O)C1C [BI-D1870] + C[C@]1(O)C[C@@H](c2nc(-c3ccc4ccc(-c5ccccc5)nc4c3)c3c(N)nccn32)C1 [Linsitinib] (partner 1 µM)
Outline: as §1

Cell Line	relative viability ([1]; first compound 0.04 µM)	relative viability ([1]; first compound 0.1265 µM)	relative viability ([1]; first compound 0.4 µM)	relative viability ([1]; first compound 1.265 µM)	relative viability ([1]; first compound 4 µM)	relative viability ([2]; first compound 0.04 µM)	relative viability ([2]; first compound 0.1265 µM)	relative viability ([2]; first compound 0.4 µM)	relative viability ([2]; first compound 1.265 µM)	relative viability ([2]; first compound 4 µM)	relative viability ([3]; first compound 0.04 µM)	relative viability ([3]; first compound 0.1265 µM)	relative viability ([3]; first compound 0.4 µM)	relative viability ([3]; first compound 1.265 µM)	relative viability ([3]; first compound 4 µM)	relative viability ([4]; first compound 0.04 µM)	relative viability ([4]; first compound 0.1265 µM)	relative viability ([4]; first compound 0.4 µM)	relative viability ([4]; first compound 1.265 µM)	relative viability ([4]; first compound 4 µM)
HCC-827	0.551	0.495	0.463	0.456	0.432	1.07	1.03	1.02	1.02	0.941	0.444	0.431	0.421	0.446	0.432	0.992	0.959	0.982	0.977	0.895
HOP-62	0.429	0.332	0.331	0.367	0.299	1.06	1.01	0.995	1.2	1.01	0.508	0.419	0.496	0.522	0.405	1.25	0.997	1.13	1.04	0.91
LC-2-ad	0.897	0.848	0.957	0.956	0.882	0.549	0.44	0.444	0.41	0.244	0.577	0.471	0.509	0.477	0.401	0.874	0.821	0.778	0.722	0.522
LCLC-97TM1	0.214	0.181	0.174	0.221	0.146	0.407	0.398	0.574	0.364	0.613	0.262	0.217	0.171	0.217	0.17	0.238	0.158	0.19	0.244	0.193
LK-2	0.864	0.8	0.786	0.97	0.649	1.22	0.885	0.964	1.05	0.945	0.803	0.842	0.598	0.701	0.672	0.616	0.518	0.512	0.497	0.457
LOU-NH91	0.842	0.762	0.788	0.761	0.651	0.854	0.631	0.721	0.662	0.522	0.497	0.57	0.499	0.529	0.509	0.98	0.908	0.996	0.986	0.769
LU99A	0.513	0.436	0.519	0.511	0.533	0.805	0.744	0.798	0.961	0.911	0.431	0.363	0.387	0.37	0.331	0.617	0.435	0.519	0.48	0.496
LXF-289	0.755	0.608	0.71	0.738	0.612	0.951	0.923	0.94	0.936	0.895	0.577	0.583	0.598	0.641	0.558	1.05	0.91	0.943	0.947	0.916
NCI-H23	0.39	0.342	0.385	0.329	0.295	1.15	0.741	0.792	0.891	0.888	0.568	0.47	0.546	0.525	0.323	0.911	0.385	0.586	0.61	0.685
NCI-H322M	0.437	0.537	0.524	0.508	0.495	1.22	1.19	1.44	1.06	1.07	0.492	0.475	0.461	0.483	0.501	1.05	0.904	0.826	0.879	0.883
NCI-H441	0.524	0.417	0.463	0.578	0.378	0.478	0.575	0.692	0.642	0.338	0.266	0.21	0.173	0.225	0.229	0.871	0.429	0.481	0.493	0.518
NCI-H460	0.133	0.117	0.126	0.105	0.0577	1.24	1.09	1.08	0.407	0.0595	0.226	0.154	0.135	0.184	0.121	0.974	0.629	0.655	0.434	0.0477
NCI-H520	0.645	0.627	0.683	0.612	0.302	1.12	1.01	0.938	1.05	0.829	0.253	0.218	0.217	0.224	0.13	1	0.846	0.985	0.803	0.678
NCI-H647	0.575	0.45	0.533	0.462	0.335	1.27	0.978	1.08	1.04	0.848	0.488	0.342	0.463	0.371	0.215	1.14	1.2	1.26	1.22	0.871
NCI-H727	0.41	0.406	0.406	0.438	0.429	0.459	0.362	0.416	0.607	0.501	0.594	0.579	0.648	0.64	0.66	0.323	0.328	0.252	0.371	0.261
NCI-H838	0.597	0.444	0.536	0.667	0.523	1.28	1.04	1.12	1.29	1.21	0.243	0.236	0.232	0.262	0.209	1.13	0.962	0.998	1.13	0.957

Cell Line	relative viability ([1]; first compound 0.04 µM)	relative viability ([1]; first compound 0.1265 µM)	relative viability ([1]; first compound 0.4 µM)	relative viability ([1]; first compound 1.265 µM)	relative viability ([1]; first compound 4 µM)	relative viability ([2]; first compound 0.04 µM)	relative viability ([2]; first compound 0.1265 µM)	relative viability ([2]; first compound 0.4 µM)	relative viability ([2]; first compound 1.265 µM)	relative viability ([2]; first compound 4 µM)	relative viability ([3]; first compound 0.04 µM)	relative viability ([3]; first compound 0.1265 µM)	relative viability ([3]; first compound 0.4 µM)	relative viability ([3]; first compound 1.265 µM)	relative viability ([3]; first compound 4 µM)	relative viability ([4]; first compound 0.04 µM)	relative viability ([4]; first compound 0.1265 µM)	relative viability ([4]; first compound 0.4 µM)	relative viability ([4]; first compound 1.265 µM)	relative viability ([4]; first compound 4 µM)
NCI-H1355	0.455	0.361	0.448	0.418	0.454	0.959	0.959	0.988	1.05	1.03	0.384	0.368	0.403	0.446	0.392	0.842	0.81	0.788	0.788	0.75
NCI-H1395	1.09	0.972	1.01	1.17	0.978	1.16	1.12	1.36	1.01	0.871	0.649	0.603	0.64	0.717	0.638	1.11	0.922	1.14	1.2	0.85
NCI-H1437	0.556	0.475	0.494	0.568	0.398	1.19	1.06	1.11	1.03	0.973	0.304	0.336	0.309	0.272	0.212	1.06	0.943	0.979	0.909	0.691
NCI-H1651	0.874	0.881	0.81	0.936	0.828	1.15	0.946	0.935	1.08	0.778	0.473	0.503	0.494	0.555	0.536	1.09	0.907	0.962	0.922	0.752
NCI-H1666	0.847	0.798	0.801	0.882	0.878	0.89	0.822	0.81	0.933	0.851	0.665	0.591	0.661	0.63	0.619	0.921	0.814	0.865	0.843	0.872
NCI-H1734	0.752	0.549	0.658	0.706	0.632	0.875	0.757	0.842	0.849	0.81	0.334	0.302	0.337	0.345	0.309	0.967	0.816	0.875	0.935	0.788
NCI-H1755	0.758	0.774	0.74	0.831	0.739	1.06	0.945	0.995	1.07	1.01	0.432	0.413	0.438	0.481	0.435	0.982	0.975	1.04	0.967	0.941
NCI-H1792	0.489	0.349	0.437	0.567	0.372	0.655	0.666	0.597	0.791	0.608	0.635	0.613	0.679	0.719	0.479	0.622	0.607	0.47	0.619	0.387
NCI-H1793	0.486	0.332	0.366	0.631	0.429	0.34	0.342	0.372	0.554	0.45	0.369	0.274	0.291	0.391	0.318	0.824	0.578	0.794	0.84	0.932
NCI-H1915	0.332	0.27	0.27	0.254	0.249	0.822	0.763	0.803	0.815	0.746	0.577	0.504	0.469	0.451	0.376	1.1	1.12	1.1	1.12	1.05
NCI-H1944	0.443	0.362	0.382	0.423	0.393	1.01	1.02	0.988	1.09	1.06	0.335	0.308	0.308	0.332	0.33	1.34	1.18	1.07	1.38	1.08
NCI-H1975	0.373	0.285	0.339	0.365	0.289	1.12	1.22	1.14	1.06	0.54	0.785	0.521	0.552	0.623	0.456	1.01	0.849	0.874	0.94	0.636
NCI-H1993	0.404	0.505	0.621	0.567	0.42	0.91	0.888	0.988	1.07	0.73	0.642	0.583	0.717	0.691	0.573	0.812	0.739	0.726	0.703	0.797
NCI-H2009	0.299	0.221	0.248	0.289	0.198	1.22	1.12	1.15	1.09	0.865	0.22	0.169	0.229	0.179	0.148	1.29	1.13	1.23	1.13	0.881
NCI-H2023	0.537	0.389	0.578	0.516	0.349	1.03	0.811	1.01	0.864	0.894	0.424	0.279	0.284	0.3	0.207	0.72	0.507	0.569	0.605	0.543
NCI-H2085	0.547	0.411	0.576	0.654	0.524	1.14	1.07	1.11	1.06	0.865	0.453	0.475	0.474	0.456	0.355	0.93	0.81	0.896	0.885	0.68
